Experimental data reported in PubChem BioAssay AID330 (DTP/NCI, 2004).
Several values for one entry are separate records, joined by “and”; a condition that tells them apart may be missing. Identical values can stand only once. Inconclusive results and toxic doses are left out.

Test system: P388 leukemia ip, CD2F1 mice, survival T/C
Assay: NCI In Vivo Anticancer Drug Screen. Data for tumor model P388 Leukemia (intraperitoneal) in CD2F1 (CDF1) mice
Conditions: endpoint: median survival time, higher = longer survival
Outline: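 Mice carrying the transplanted tumor received test compound or vehicle. Survival was recorded in each group, and the value is the treated-group measurement divided by that of the vehicle-treated control group.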

[1] = dose: 50.0 mg/kg/injection, schedule: Q01DX009 (ip), vehicle: Klucel (hydroxypropylcellulose) (HPC)
[2] = dose: 100.0 mg/kg/injection, schedule: Q01DX009 (ip), vehicle: Klucel (hydroxypropylcellulose) (HPC)
[3] = dose: 200.0 mg/kg/injection, schedule: Q01DX009 (ip), vehicle: Klucel (hydroxypropylcellulose) (HPC)
[4] = dose: 50.0 mg/kg/injection, schedule: Q01DX005 (ip), vehicle: Klucel (hydroxypropylcellulose) (HPC)
[5] = dose: 100.0 mg/kg/injection, schedule: Q01DX005 (ip), vehicle: Klucel (hydroxypropylcellulose) (HPC)
[6] = dose: 200.0 mg/kg/injection, schedule: Q01DX005 (ip), vehicle: Klucel (hydroxypropylcellulose) (HPC)
[7] = dose: 60.0 mg/kg/injection, schedule: Q01DX005 (ip), vehicle: saline

Compound: CCC[CH2][Sn]([CH2]CCC)[O][Sn]([Cl])([CH2]CCC)[CH2]CCC
- T/C (dose: 0.79 mg/kg/injection, schedule: Q01DX009 (ip), vehicle: saline): 100 % of control
- T/C (dose: 1.56 mg/kg/injection, schedule: Q01DX009 (ip), vehicle: saline with Tween-80): 100 % of control
- T/C (dose: 1.56 mg/kg/injection, schedule: Q01DX009 (ip), vehicle: saline): 100 % of control
- T/C (dose: 3.12 mg/kg/injection, schedule: Q01DX009 (ip), vehicle: saline with Tween-80): 101 % of control and 113 % of control
- T/C (dose: 3.12 mg/kg/injection, schedule: Q01DX009 (ip), vehicle: saline): 97 % of control
- T/C (dose: 6.25 mg/kg/injection, schedule: Q01DX009 (ip), vehicle: saline with Tween-80): 100 % of control
- T/C (dose: 6.25 mg/kg/injection, schedule: Q01DX009 (ip), vehicle: saline): 88 % of control

Compound: CCOC(=O)c1[nH]cnc1/N=N/N(C)C
- T/C (dose: 100.0 mg/kg/injection, schedule: Q01DX009 (ip), vehicle: saline with Tween-80): 90 % of control
- T/C (dose: 150.0 mg/kg/injection, schedule: Q04DX003 (ip), vehicle: saline with Tween-80): 120 % of control
- T/C (dose: 200.0 mg/kg/injection, schedule: Q04DX003 (ip), vehicle: saline with Tween-80): 150 % of control

Compound: N#CC1C(=O)NC(=O)C(C#N)C1c1c2ccccc2cc2ccccc12 (stereo not given)
- T/C [1]: 100 % of control
- T/C [2]: 100 % of control
- T/C [3]: 100 % of control

Compound: COn1c2ccccc2c2c1cc1ccccc1[n+]2[O-]
- T/C (dose: 12.5 mg/kg/injection, schedule: Q01DX005 (ip), vehicle: Klucel (hydroxypropylcellulose) (HPC)): 113 % of control
- T/C (dose: 25.0 mg/kg/injection, schedule: Q01DX005 (ip), vehicle: Klucel (hydroxypropylcellulose) (HPC)): 111 % of control
- T/C [4]: 106 % of control
- T/C [5]: 90 % of control
- T/C [6]: 94 % of control

Compound: O=C(O)c1cccc2c1C(=O)c1cccc3snc-2c13
- T/C [4]: 101 % of control
- T/C [5]: 99 % of control
- T/C [6]: 109 % of control

Compound: O=c1[nH]cc(CSc2ncc[nH]2)c(=O)[nH]1
- T/C (dose: 30.0 mg/kg/injection, schedule: Q01DX005 (ip), vehicle: saline): 119 % of control
- T/C (dose: 60.0 mg/kg/injection, schedule: Q01DX005 (ip), vehicle: saline with Tween-80): 119 % of control
- T/C [7]: 124 % of control

Compound: CCCCCCC(/C=C/c1ccc(Cl)c(Cl)c1)=N\Nc1c(Cl)cccc1Cl
- T/C [1]: 91 % of control
- T/C [2]: 91 % of control
- T/C [3]: 87 % of control

Compound: CC1(C)CC(OP2(=O)NCCCO2)CC(C)(C)N1O (stereo not given)
- T/C (dose: 27.5 mg/kg/injection, schedule: Q01DX001 (ip), vehicle: saline): 150 % of control
- T/C (dose: 55.0 mg/kg/injection, schedule: Q01DX001 (ip), vehicle: saline): 165 % of control

Compound: CC(=O)C(=Cc1ccc(OC2OC(CO)C(O)C(O)C2O)cc1)C(C)=O (stereo not given)
- T/C [7]: 100 % of control
- T/C (dose: 120.0 mg/kg/injection, schedule: Q01DX005 (ip), vehicle: saline): 100 % of control
- T/C (dose: 240.0 mg/kg/injection, schedule: Q01DX005 (ip), vehicle: saline): 98 % of control

Compound: C1COCCCOCCCOCCCC2(CCCOCCCOC1)CO2
- T/C (dose: 50.0 mg/kg/injection, schedule: Q01DX005 (ip), vehicle: saline with Tween-80): 110 % of control
- T/C (dose: 100.0 mg/kg/injection, schedule: Q01DX005 (ip), vehicle: saline with Tween-80): 86 % of control
- T/C (dose: 200.0 mg/kg/injection, schedule: Q01DX005 (ip), vehicle: saline with Tween-80): 109 % of control

Compound: CC(O)C(NC(=O)c1ccc([N+](=O)[O-])cc1)C(=O)O (stereo not given)
- T/C (dose: 50.0 mg/kg/injection, schedule: Q01DX005 (ip), vehicle: saline): 105 % of control
- T/C (dose: 100.0 mg/kg/injection, schedule: Q01DX005 (ip), vehicle: saline): 102 % of control
- T/C (dose: 200.0 mg/kg/injection, schedule: Q01DX005 (ip), vehicle: saline): 91 % of control

Compound: O=C1C(N=Nc2ccccc2)Sc2nc3ccccc3n21 (stereo not given)
- T/C (dose: 60.0 mg/kg/injection, schedule: Q01DX005 (ip), vehicle: Klucel (hydroxypropylcellulose) (HPC)): 90 % of control
- T/C (dose: 120.0 mg/kg/injection, schedule: Q01DX005 (ip), vehicle: Klucel (hydroxypropylcellulose) (HPC)): 86 % of control
